{"source": "patent US6630492B1", "about": "“Lymphocyte function antigen-1 antagonists” (Novartis AG, priority 1997, dated 2003)", "key": {"[1]": {"test_system": "thioglycollate induced neutrophil migration", "assay": "Murine thioglycollate induced peritonitis", "type": "in vivo", "details": "s.c., mice", "description": "Thioglycollate is injected i.p. to mice and immediately thereafter the compound to be tested is given s.c. The mice are killed after 4 hours, the peritoneal cavity lavaged and the total number of neutrophils in the lavage fluid is determined.\nIn this assay, the compounds of the invention, e.g. mevinolins inhibit thioglycollate induced neutrophil migration when administered s.c. at a dose of from 0.001-50 mg/kg."}, "[2]": {"target": "T1, LFA-1/ICAM-1 interactions (Homo sapiens, UniProt P20701)", "T1 construct": "host or cells: Jurkat or Hut 78 cells", "T1 sequence (P20701 26-1170)": "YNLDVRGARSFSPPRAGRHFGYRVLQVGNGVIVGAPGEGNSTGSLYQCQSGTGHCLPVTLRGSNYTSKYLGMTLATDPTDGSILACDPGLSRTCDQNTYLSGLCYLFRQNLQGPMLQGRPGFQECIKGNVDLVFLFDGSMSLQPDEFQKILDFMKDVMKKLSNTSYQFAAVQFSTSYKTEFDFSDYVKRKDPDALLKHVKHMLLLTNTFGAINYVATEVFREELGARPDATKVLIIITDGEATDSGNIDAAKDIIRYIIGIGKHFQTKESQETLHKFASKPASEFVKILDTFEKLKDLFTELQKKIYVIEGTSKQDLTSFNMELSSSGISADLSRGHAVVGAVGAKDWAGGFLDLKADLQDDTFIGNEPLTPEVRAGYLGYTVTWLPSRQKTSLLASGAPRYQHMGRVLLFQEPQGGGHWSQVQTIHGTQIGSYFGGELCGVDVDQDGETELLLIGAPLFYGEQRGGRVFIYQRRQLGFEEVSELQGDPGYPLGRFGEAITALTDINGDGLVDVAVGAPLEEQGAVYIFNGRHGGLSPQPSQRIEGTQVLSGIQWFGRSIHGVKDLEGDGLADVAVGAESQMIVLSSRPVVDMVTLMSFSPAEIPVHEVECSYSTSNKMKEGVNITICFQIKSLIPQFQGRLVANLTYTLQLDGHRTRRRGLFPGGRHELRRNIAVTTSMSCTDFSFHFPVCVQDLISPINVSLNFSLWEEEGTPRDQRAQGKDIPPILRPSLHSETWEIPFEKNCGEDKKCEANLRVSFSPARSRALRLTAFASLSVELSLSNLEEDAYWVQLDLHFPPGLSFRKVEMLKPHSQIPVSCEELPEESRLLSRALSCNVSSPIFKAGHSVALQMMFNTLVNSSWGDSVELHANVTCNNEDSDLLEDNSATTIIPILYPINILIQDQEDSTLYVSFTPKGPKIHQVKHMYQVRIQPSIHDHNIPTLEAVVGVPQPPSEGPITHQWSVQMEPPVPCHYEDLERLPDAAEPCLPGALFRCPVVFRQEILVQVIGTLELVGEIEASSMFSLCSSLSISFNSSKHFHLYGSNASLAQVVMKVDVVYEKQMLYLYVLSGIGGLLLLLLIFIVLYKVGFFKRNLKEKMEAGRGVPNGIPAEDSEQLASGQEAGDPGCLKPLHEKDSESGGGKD", "T1 sequence (P05107 23-769 partner)": "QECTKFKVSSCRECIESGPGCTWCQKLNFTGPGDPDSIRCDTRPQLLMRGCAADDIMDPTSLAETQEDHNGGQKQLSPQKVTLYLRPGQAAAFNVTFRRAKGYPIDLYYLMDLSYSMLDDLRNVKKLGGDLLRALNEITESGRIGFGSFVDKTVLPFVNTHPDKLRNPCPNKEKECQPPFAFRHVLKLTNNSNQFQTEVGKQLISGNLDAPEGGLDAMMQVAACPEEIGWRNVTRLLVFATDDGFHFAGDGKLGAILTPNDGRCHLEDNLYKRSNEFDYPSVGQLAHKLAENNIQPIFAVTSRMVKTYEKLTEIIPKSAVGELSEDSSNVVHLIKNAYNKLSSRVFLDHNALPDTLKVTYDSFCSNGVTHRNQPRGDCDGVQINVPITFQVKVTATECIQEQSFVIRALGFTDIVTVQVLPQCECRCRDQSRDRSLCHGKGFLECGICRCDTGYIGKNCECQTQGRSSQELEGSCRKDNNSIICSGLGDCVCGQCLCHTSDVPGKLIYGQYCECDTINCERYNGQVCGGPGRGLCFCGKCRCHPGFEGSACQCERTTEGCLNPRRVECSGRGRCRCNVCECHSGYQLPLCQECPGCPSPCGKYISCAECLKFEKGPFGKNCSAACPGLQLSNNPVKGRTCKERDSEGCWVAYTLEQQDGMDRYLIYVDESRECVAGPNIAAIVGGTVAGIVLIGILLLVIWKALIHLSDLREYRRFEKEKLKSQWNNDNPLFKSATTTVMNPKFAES", "assay": "Jurkat or Hut 78 cell adhesion to ICAM-1", "type": "cell-based", "description": "Jurkat or Hut 78 cells obtained from ATCC and cultured in RPMI-1640 supplemented with 10% FCS, L-glutamine, non essential amino acids and 0.05 mM 2-mercaptoethanol, are centrifuged, washed once in PBS, and resuspended at 0.5×10^6 cells/ml in binding buffer (1.5% BSA, 5 mM glucose, 2 mM MgCl2, […] MnCl2 in TBS, pH 7) containing 5 μg/ml BCECF-AM (Molecular Probes). The cells are incubated at 37° C. for 30-45 min. in the dark. Then the cells are centrifuged and resuspended in binding buffer by pipetting and immediately used for experiment.\nFlat well microtiter plates (NUNC Maxisorp) are coated with 1 μg/ml goat anti-mouse Cκ (Bioreba, South.Biot.) in carbonate buffer (15 mM Na2CO3, 35 mM NaHCO3, pH8.0) 2 hours at 37° C. The plates are emptied and blocked with 1.5% BSA and 0.5% Tween-20 in carbonate buffer for 90 min. at 37° C. The plates are emptied and washed once in TBS containing, 1.5% BSA. Baculovirus derived ICAM-1 mouse Cκ fusion protein (100 ng/ml in TBS/1.5% BSA) is added to the wells. The plates are incubated for 90 min. at 37° C. After three washes with TBS/1.5% BSA, the compound to be tested is diluted in binding buffer (as above but free from BSA and glucose) and added to the wells. Then 100 000 Jurkat or Hut 78 cells/well are added and allowed to adhere for 30 min. at 37° C. Adherent cells are separated from non-adherent cells by 2-4 washes using binding buffer. Adherent cells are quantified with a fluorescence ELISA reader CytofluorII with the filters set at 485 nm and 530 nm emission."}, "LFA-1 I-domain": {"target": "T2, LFA-1 I-domain (Homo sapiens, UniProt P20701)", "T2 construct": "amino acid residues 128 to 309 of the α-chain of LFA-1 which corresponds to the I-domain", "T2 sequence (P20701 153-334)": "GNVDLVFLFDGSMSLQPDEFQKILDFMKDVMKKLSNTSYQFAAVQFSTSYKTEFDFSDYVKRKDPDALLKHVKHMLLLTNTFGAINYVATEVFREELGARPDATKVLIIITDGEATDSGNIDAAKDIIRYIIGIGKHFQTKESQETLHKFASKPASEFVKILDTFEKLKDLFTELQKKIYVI", "assay": "X-ray analysis of the complex of LFA-1 I-domain with mevinolin", "type": "binding", "description": "The complex, LFA-1 I-domain/mevinolin, is prepared by adding mevinolin (100 mM solution in DMSO) to the protein solution (12.7 mg/ml, 100 mM MgSO4), followed by crystallization. The structure is solved by molecular replacement (using the coordinates of apo LFA-1 I domain, A. Qu & D. Leahy, above) and has been refined to a R factor of 19.4% (Rfree=25.9%) using X-ray amplitudes in the resolution range 8 Å-2.6 Å. The final model contains 2×182 amino acids (amino acid residues 128 to 309 of the α-chain of LFA-1 which corresponds to the I-domain), 2 mevinolin molecules and a total of 86 water molecules."}, "[3]": {"details": "Jurkat cells, adhesion to ICAM-1, read-out: IC50 in the Jurkat Cell Assay"}}, "note": "Read-outs that look alike come from different tables or passages of the source.", "data": [{"smiles": "CCC(C)C(=O)OC1CC(C)C=C2C=CC(C)C(CCC(O)CC(CC(=O)NCCO)NCCO)C21", "note": "(stereo not shown) [Example 6, 2-Methyl-butyric Acid 8-[3-Hydroxy-5-(2-hydroxy-ethylamino)-6-(2-hydroxy-ethylcarbamoyl)-hexyl]-3,7-dimethyl-1,2,3,7,8,8a-hexahydro-naphthalen-1-yl Ester]", "values": [{"measurement": "inhibition of neutrophil migration", "setting": "[1]; 1 mg/kg", "value": "fully inhibit"}, {"measurement": "IC50", "setting": "[2]; [3]", "value": 4000, "unit": "nM"}]}, {"smiles": "CC[C@H](C)C(=O)O[C@H]1C[C@@H](C)C=C2C=C[C@H](C)[C@H](CCC(O)CC(O)CC(=O)NCc3ccccc3OC)[C@H]21", "note": "(stereo partly shown) [Example 15]", "values": [{"measurement": "IC50", "setting": "[2]; [3]", "value": 2200, "unit": "nM"}]}, {"smiles": "CC[C@H](C)C(=O)O[C@H]1C[C@@H](C)C=C2C=C[C@H](C)[C@H](CCC(O)CC(O)CC(=O)N3CCC4(CC3)OCCO4)[C@H]21", "note": "(stereo partly shown) [Example 33]", "values": [{"measurement": "inhibition of neutrophil migration", "setting": "[1]; 0.1 mg/kg", "value": "fully inhibit"}, {"measurement": "IC50", "setting": "[2]", "value": 1200, "unit": "nM"}]}, {"smiles": "CC[C@H](C)C(=O)O[C@H]1C[C@@H](C)C=C2C=C[C@H](C)[C@H](CC[C@@H]3C[C@@H](O)CC(=O)O3)[C@H]21", "note": "[mevinolin, Mevinolin]", "values": [{"measurement": "binding to the MIDAS-site", "setting": "LFA-1 I-domain; X-ray analysis of the complex", "value": "does not bind to the MIDAS-site"}, {"measurement": "binding to the LFA-1 I-domain (south pole pocket)", "setting": "LFA-1 I-domain; between the C-terminal helix α7 and one side of the β-sheet", "value": "binds to the LFA-1 I-domain"}]}]}
